Key:
[1] = tested on: WI38 cells (non-cancerous fibroblast, p53 WT); test: Cell viability assay, WI38; settings: Homo sapiens, WI-38, 72 h, read-out: IC50 WI38
Experimental: (§3) All cell lines were cultured as previously described [9]. Cell viability was measured in quadruplicate (technical replicates) using the CellTiter-Fluor or CellTiter-Glo 2.0 cell viability assay kits (Promega, USA) as previously described [9].

BXPC-3 cells (p53-Y220C) = test: Cell viability assay, BXPC3; settings: Homo sapiens, BXPC-3, 72 h, read-out: IC50 BXPC3
Experimental: as §3

NUGC3 cells (p53-Y220C) = test: Cell viability assay (CellTiter-Fluor / CellTiter-Glo 2.0), NUGC3; format: cell-based, human; settings: Homo sapiens, NUGC-3; 72 h, Y220C cell line
Experimental: (§1) We also envisaged that masking the carboxylate of MB710 as a simple ethylamide MB725 might influence cell permeability and uptake of the scaffold.
(§2) All cell lines were cultured as previously described. Cell viability was measured in quadruplicate (technical replicates) using the CellTiter-Fluor or CellTiter-Glo 2.0 cell viability assay kits (Promega, USA) as previously described.

[2] = tested on: NUGC4 cells (wild-type p53); test: Cell viability assay, NUGC4; format: cell-based; settings: Homo sapiens, NUGC-4; 72 h, p53 WT
Experimental: as §1, §2

[3] = Solubility (qualitative observation); format: physicochemical
[4] = biological target: T1, stabilized p53-Y220C DBD (residues 94–312) (Homo sapiens, UniProt P04637, M133L/N239Y/N268D/V203A/Y220C); test: Differential scanning fluorimetry (DSF), thermal stabilization of Y220C; format: binding; settings: 8 μM protein, 10 × SYPRO Orange, 250 μM ligand
T1 construct: Stabilized p53-Y220C DBD (residues 94–312) was expressed and purified; 6xHis / lipoyl domain / TEV protease cleavage site (N, cleaved yes); made in house; host or cells: E. coli C41
Experimental: DSF was performed as described. […] All samples were measured in triplicate.

p53 cancer mutant Y220C = test: Binding affinity to the Y220C pocket, values taken from earlier papers (ITC/NMR); settings: Kd ratio
[5] = biological target: T1, stabilized p53-Y220C DBD (residues 94–312); test: Isothermal titration calorimetry (ITC); format: binding; settings: for Kd: ITC
Experimental: Isothermal Titration Calorimetry (ITC). ITC experiments were conducted as described. The cell unit contained 50 μM protein in a 25 mM KPi (pH 7.2), 150 mM NaCl, 1 mM TCEP, and 5% (v/v) DMSO assay buffer. The syringe contained 2–5 mM compound in the same buffer.

[6] = tested on: HUH-7 and HUH-7 p53-Y220C KO cells; test: Cell viability, HUH-7 versus isogenic HUH-7 p53-Y220C KO; format: cell-based, human; settings: 72 h, at higher compound concentration than MB725
Description: To confirm that MB725 mediated anticancer effects are dependent on p53-Y220C, we additionally tested the compound in HUH-7 and an in-house CRISPR generated isogenic p53-Y220C knock-out (KO) HUH-7 cell line (Fig. 8). This new cell line contains a frameshift mutation at codon 124 on one allele and deletion of amino acids 125–223 on the other allele, leading to functional inactivation of the p53 DNA-binding domain (aa 92–292). MB725 decreased cell viability by ca. 30–40% more potently in HUH-7 than in the isogenic HUH-7 p53-Y220C KO (Fig. 8, upper panel).
Fig. 8 Assessment of p53-Y220C dependent effect of MB725. Treatment of HUH-7 (p53-Y220C) and HUH-7 p53-Y220C KO cell lines with MB725 for 72 h underscores the enhanced cytotoxicity of MB725 in the presence of p53-Y220C (left panel). […] Cell viability was measured in quadruplicate and normalized against the values of blank (viability = 1) and no cell (viability = 0) controls (left panel). […] Relative mRNA fold-change was measured in triplicate and normalized against untreated sample according to the ΔΔCt method. […]
WI-38 and BXPC-3 (p53-Y220C) cell lines were purchased from ATCC and HUH-7 (p53-Y220C+/+), HUH-6 (wild-type p53+/+). […] Cell viability was measured in quadruplicate (technical replicates) using the CellTiter-Fluor or CellTiter-Glo 2.0 cell viability assay kits (Promega, USA) as previously described. […]

SW1088 cells (p53-R273C) = test: Cell viability assay, SW1088; settings: Homo sapiens, SW1088, 72 h, read-out: IC50 SW1088
Experimental: as §3

[7] = tested on: NUGC4, HUH-6, NUGC3, HUH-7, SW1088, BXPC-3, WI38 cells; test: Cell viability across all cell lines tested; format: cell-based, human; settings: 72 h treatment; 60 and MB710: at concentrations up to 60 μM
Experimental: as §1, §2

| ΔTm at 250 µM [4] [°C] | Kd [5] [µM] | Structure (SMILES) | further results |
| --- | --- | --- | --- |
| – | – | Cn1cc(-c2ccccc2)c(-n2cccc2)n1 [Compound 2] | IC50 [1]: ~120 µM; IC50 (BXPC-3 cells (p53-Y220C)): 57 µM; IC50 (NUGC3 cells (p53-Y220C)): 43 µM; IC50 [2]: > 120 µM |
| – | – | CCN(CC)C1CCN(Cc2cc(C#CCNc3ccccc3)cc(I)c2O)CC1 [Compound 3] | IC50 [1]: 7 µM; IC50 (BXPC-3 cells (p53-Y220C)): 11 µM; IC50 (NUGC3 cells (p53-Y220C)): 6 µM; IC50 [2]: 9 µM |
| – | – | O=C(O)c1cc(I)cc(I)c1O [Compound 4, 2-hydroxy-3,5-diiodobenzoic acid, reference compound] | solubility (in words) [3]: water soluble |
| -0.1 | – | COC(=O)c1cc(I)c(-n2cccc2)c(I)c1O [Compound 8, Methyl 2-hydroxy-3,5-diiodo-4-(1H-pyrrol-1-yl)benzoate] | – |
| – | – | O=C(O)c1cc(I)c(-n2cccc2)c(I)c1O [Compound 9, 2-hydroxy-3,5-diiodo-4-(1H-pyrrol-1-yl)benzoic acid] | fold more potent than parent fragment 4 (p53 cancer mutant Y220C): 40 fold |
| 1.3 | – | CN(C)CCNC(=O)c1cc(I)c(-n2cccc2)c(I)c1O [Compound 10, N-(2-(dimethylamino)ethyl)-2-hydroxy-3,5-diiodo-4-(1H-pyrrol-1-yl)benzamide] | solubility (in words) [3]: substantially less soluble than carboxylic acid 9 |
| 1.2 | 30 | CN1CCN(C(=O)c2cc(I)c(-n3cccc3)c(I)c2O)CC1 [Compound 11, (2-hydroxy-3,5-diiodo-4-(1H-pyrrol-1-yl)phenyl)(4-methylpiperazin-1-yl)methanone] | – |
| 0.9 | 70 | CNC(=O)c1cc(I)c(-n2cccc2)c(I)c1O [Compound 12, 2-hydroxy-3,5-diiodo-N-methyl-4-(1H-pyrrol-1-yl)benzamide] | solubility (in words) [3]: substantially less soluble than carboxylic acid 9 |
| 0.8 | 139 | O=C(NO)c1cc(I)c(-n2cccc2)c(I)c1O [Compound 15, N,2-dihydroxy-3,5-diiodo-4-(1H-pyrrol-1-yl)benzamide] | – |
| 0.9 | 60 | CN(C)Cc1cc(I)c(-n2cccc2)c(I)c1O [Compound 17, 6-((dimethylamino)methyl)-2,4-diiodo-3-(1H-pyrrol-1-yl)phenol] | – |
| 1.5 | 50 | O=c1[nH][nH]c2c(I)c(-n3cccc3)c(I)cc12 [Compound 21, 5,7-diiodo-6-(1H-pyrrol-1-yl)-1,2-dihydro-3H-indazol-3-one] | – |
| 1 | 306 | O=C(O)c1cc(-c2ccccc2)c(-n2cccc2)c(I)c1O [Compound 33, 4-hydroxy-5-iodo-6-(1H-pyrrol-1-yl)-[1,1'-biphenyl]-3-carboxylic acid] | – |
| 0.8 | 113 | O=C(O)c1cc(-c2ccc(F)cc2)c(-n2cccc2)c(I)c1O [Compound 34, 4'-fluoro-4-hydroxy-5-iodo-6-(1H-pyrrol-1-yl)-[1,1'-biphenyl]-3-carboxylic acid] | – |
| 1 | 122 | COc1ccc(-c2cc(C(=O)O)c(O)c(I)c2-n2cccc2)cc1 [Compound 35, 4-hydroxy-5-iodo-4'-methoxy-6-(1H-pyrrol-1-yl)-[1,1'-biphenyl]-3-carboxylic acid] | – |
| 1.3 | 63 | CCOc1cc(C(=O)O)c(O)c(I)c1-n1cccc1 [Compound 49, 5-ethoxy-2-hydroxy-3-iodo-4-(1H-pyrrol-1-yl)benzoic acid] | times less potent than the parent iodine ([5]; Kd ratio versus parent iodine (21 μM)): 3 |
| 1.8 | 33 | C=CCOc1cc(C(=O)O)c(O)c(I)c1-n1cccc1 [Compound 51, 5-(allyloxy)-2-hydroxy-3-iodo-4-(1H-pyrrol-1-yl)benzoic acid] | – |
| 1.4 | 108 | O=C(O)c1cc(OCCC(F)(F)F)c(-n2cccc2)c(I)c1O [Compound 53, 2-hydroxy-3-iodo-4-(1H-pyrrol-1-yl)-5-(3,3,3-trifluoropropoxy)benzoic acid] | – |
| 0.6 | 726 | O=C(O)c1cc(OCCO)c(-n2cccc2)c(I)c1O [Compound 54, 2-hydroxy-5-(2-hydroxyethoxy)-3-iodo-4-(1H-pyrrol-1-yl)benzoic acid] | – |
| 1 | 116 | O=C(O)c1cc(OCCc2ccccc2)c(-n2cccc2)c(I)c1O [Compound 55, 2-hydroxy-3-iodo-5-phenethoxy-4-(1H-pyrrol-1-yl)benzoic acid] | – |
| 2 | 4 | CCN(CC)c1nc2c(C(=O)O)c(O)c(I)c(-n3cccc3)c2s1 [Compound 70, 2-(diethylamino)-5-hydroxy-6-iodo-7-(1H-pyrrol-1-yl)benzo[d]thiazole-4-carboxylic acid] | fold increase in affinity compared to starting fragment 4 ([5]; Kd ratio): 200 fold; IC50 [1]: > 120 µM; viability reduction HUH-7 versus HUH-7 p53-Y220C KO (in words) [6]: stronger viability reduction in HUH-7 cells than in HUH-7 p53-Y220C KO cells; IC50 (SW1088 cells (p53-R273C)): > 120 µM; toxicity and selectivity across cell lines (in words) [7]: relatively low toxicity against all cell lines tested; IC50 (NUGC3 cells (p53-Y220C)): 90 µM; IC50 [2]: ~120 µM |
| – | – | CCN(CC)c1nc2c(C(=O)OC)c(O)c(I)c(-n3cccc3)c2s1 [Compound 71, Methyl 2-(diethylamino)-5-hydroxy-6-iodo-7-(1H-pyrrol-1-yl)benzo[d]thiazole-4-carboxylate] | solubility (in words) [3]: reduced solubility |

| Structure (SMILES) | ΔTm at 250 µM [4] [°C] | Kd [5] [µM] | further results |
| --- | --- | --- | --- |
| CC(C)COc1cc(C(=O)O)c(O)c(I)c1-n1cccc1 [Compound 56, 2-hydroxy-3-iodo-5-isobutoxy-4-(1H-pyrrol-1-yl)benzoic acid] | 1.4 | 30 | – |

Reference: article PMC5986712, “Aminobenzothiazole derivatives stabilize the thermolabile p53 cancer mutant Y220C and show anticancer activity in p53-Y220C cell lines” (European Journal of Medicinal Chemistry, 2018)
